Measured values published in patent EP4473972A1, “COMBINATIONS COMPRISING AN ATR INHIBITOR WITH SYNERGISTIC EFFECT AGAINST GLIOMAS” (Eberhard-Karls-Universität Tübingen, priority 2023, dated 2024).

Assays:
LN229 cells [1] = experiment: Clonogenic survival assay; type: cell-based, human; settings: treated 24 h in serum-free medium
Method: (§1) Cells were seeded the day before treatment. The inventors treated the cells in the indicated concentrations in serum-free medium for 24 h after which they changed the medium back to medium containing FCS, followed by a 7 to 21 day incubation time. The inventors used crystal violet (0.5% w/v) to stain colonies and analyzed the area coverage using the ImageJ software Plugln ColonyArea. Measurements were normalized to respective vehicle control wells.

LNZ308 cells [2] = experiment: Clonogenic survival assay; type: cell-based, human; settings: treated 24 h in serum-free medium
Method: as §1

[3] = tested on: human and murine cell lines; experiment: Anti-glioma activity in vitro (Figure 1 b); type: cell-based
Method: as §1, with “The inventors seeded 5,000 or 10,000 cells, respectively, on day one, treated the next day in serum-free medium and incubated for up to 72 h. Subsequently, they measured cell viability using CellTiterBlue reagent (Promega, Madison, WI, US) according to manufacturer's instructions with a GloMax (Promega, Madison, Wl, US). The inventors normalized measurements to untreated cells. Cells” for “Cells”

LN229 cells [4] = experiment: Cell cycle analysis (propidium iodide flow cytometry); type: cell-based, human; settings: LN229, 72 h
Method: (§2) The inventors seeded the cells on day one and treated them on the next day. After 72 h, they detached the cells and stained them with propidium iodide solution (50 µg/mL propidium iodide (Thermo Fisher Scientific, Waltham, MA, US), 0.2% Triton X-100 (Roth, Karlsruhe, Germany), 100 µg RNase (Thermo Fisher Scientific, Waltham, MA, US), 1 g/L glucose in PBS (phosphate buffered saline) (Gibco, Carlsbad, CA, US). Flow cytometry was done using a MACSQuant Analyzer 10 (Miltenyi Biotec, Bergisch Gladbach, Germany). The inventors analyzed the acquired data with the FlowJo software (Beckton, Dickinson & Company, Franklin Lakes, NJ, US).

LNZ308 cells [5] = experiment: as above; type: cell-based, human; settings: LNZ308, 72 h
Method: as §2

LN229 cells [6] = experiment: RNA-Sequencing (RNAseq); type: cell-based, human
Method: (§3) For this, the inventors seeded the cells on day one and treated them on the next day with IC50 concentrations of AZD6738 for up to 72 h. They extracted the RNA using the Qiagen RNeasy Mini kit (Qiagen, Venlo, NL) according to manufacturer's protocol. For RNA sequencing, the inventors enriched the mRNA fraction using polyA capture from 200 ng of total RNA using the NEBNext Poly(A) mRNA Magnetic Isolation Module (NEB). They used the NEB Next Ultra II Directional RNA Library Prep Kit for Illumina (NEB) to prepare mRNA libraries according to manufacturer's instructions. The libraries were sequenced as paired-end 50 bp reads on an Illumina NovaSeq6000 (Illumina) with a sequencing depth of approximately 25 million clusters per sample. The inventors performed RNA raw data QC and processing using megSAP (version 0.2-135-gd002274) combined with ngs-bits package (version 2019_11-42-gflb98e63). To align the reads to the GRCh38 they used STAR v2.7.3a and alignment quality was analyzed using ngs-bits. Normalized read counts for all genes were obtained using Subread (v2.0.0) and edgeR (v3.26.6). The inventors used the R package "DESeq2" for further analyses. They defined differentially expressed genes (DEGs) as log2 fold-change (LFC) above or below |1| and p-adjusted < 0.01 as defined by Wald statistics. The inventors analyzed the resulting hits for KEGG pathway association using gProfiler. […] They re-aligned significant LRT genes with DEG results and analyzed them with gProfiler.

LNZ308 cells [7] = experiment: RNA-Sequencing (RNAseq); type: cell-based, human
Method: as §3

## C[C@@H]1COCCN1c1cc(C2([S@](C)(=N)=O)CC2)nc(-c2cc[nH]c3nccc2-3)n1 [AZD6738, ceralasertib]
LN229 cells [1]
  clonogenic survival: dose-dependent reduction
LNZ308 cells [2]
  clonogenic survival: dose-dependent reduction
[3]
  anti-glioma activity in vitro: significant anti-glioma activity
LN229 cells [4]
  cell cycle alterations: accumulation in S phase
LNZ308 cells [5]
  cell cycle alterations: accumulation of LNZ308 cells in G2-M phase
LN229 cells [6]
  PI3K-Akt signaling (KEGG pathway): downregulated
  p53 signaling (KEGG pathway): strongly upregulated
LNZ308 cells [7]
  PI3K-Akt signaling (KEGG pathway): upregulated
